Patent publication US8076331B2, “Substituted pyridazine derivatives” (Cephalon, Inc., priority 2008, dated 2011)

What was measured:
[1] = target: T1, human H3 receptor (Homo sapiens, UniProt Q9Y5N1); experiment: Human H3 radioligand binding ([3H]-N-alpha-methylhistamine, CHO cell membranes); conditions: membranes of CHO cells stably expressing the human H3 receptor; [3H]-N-alpha-methylhistamine approx. 1 nM
T1 construct: expressed in transfected cells
Method: Methods: CHO cells stably expressing the human H3 receptor (GenBank: NM_007232) were harvested and cell pellets were frozen (—80° C.). Cell pellets were resuspended in 5 mM Tris-HCl, pH 7.5 with […] and a cocktail of protease inhibitors (Complete Protease Inhibitior Tablets, Roche Diagnostics). Cells were disrupted using a polytron cell homogenizer and the suspension was centrifuged at 1000×g for 10 minutes at 4° C. The pellet was discarded and the supernatant centrifuged at 40,000×g for 30 min at 4° C. This membrane pellet was washed in membrane buffer containing 50 mM Tris-HCl, pH 7.5 with 0.6 mM EDTA, 5 mM MgCl2 and protease inhibitors, recentrifuged as above and the final pellet resuspended in membrane buffer plus 250 mM sucrose and frozen at −80° C.
Radioligand Binding. Membranes were resuspended in 50 mM Tris HCl (pH 7.4), 5 mM MgCl2, 0.1% BSA. The membrane suspensions (10 μg protein per well) were incubated in a 96 well microtiter plate with [^3H]-N-alpha-methylhistamine (approximately 1 nM final concentration), test compounds at various concentrations (0.01 nM-30 μM) and scintillation proximity beads (Perkin Elmer, FlashBlueGPCR Scintillating Beads) in a final volume of 80 μl for 4 hours at room temperature, protected from light. Non-specific binding was determined in the presence of 10 μM clobenpropit. Radioligand bound to receptor, and therefore in proximity to the scintillation beads, was measured using a MicroBeta scintillation counter.

T1 sequence (Q9Y5N1 whole entry): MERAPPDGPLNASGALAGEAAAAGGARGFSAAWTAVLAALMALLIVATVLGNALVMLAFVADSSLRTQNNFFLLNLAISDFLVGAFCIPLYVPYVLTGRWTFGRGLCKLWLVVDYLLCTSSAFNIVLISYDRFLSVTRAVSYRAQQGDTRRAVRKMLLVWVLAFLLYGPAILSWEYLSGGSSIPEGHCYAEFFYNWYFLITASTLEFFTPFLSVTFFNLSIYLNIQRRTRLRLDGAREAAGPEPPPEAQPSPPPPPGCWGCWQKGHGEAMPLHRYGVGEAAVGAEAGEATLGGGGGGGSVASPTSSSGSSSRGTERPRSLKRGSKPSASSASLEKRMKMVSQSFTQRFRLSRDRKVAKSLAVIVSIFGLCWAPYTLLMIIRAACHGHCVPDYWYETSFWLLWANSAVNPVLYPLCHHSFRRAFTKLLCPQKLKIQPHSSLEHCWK

Row | SMILES | Ki [1] [nM] | melting point [°C]
1 | C[C@@H]1CCCN1CCCOc1ccc(-c2ccc(Cl)nn2)cc1C#N [Example 13, 5-(6-Chloro-pyridazin-3-yl)-2-[3-((R)-2-methyl-pyrrolidin-1-yl)-propoxy]benzonitrile] | < 50 | 134 to 136
2 | C[C@@H]1CCCN1CCCOc1ccc(-c2ccc(-c3cc4ccccc4o3)nn2)cc1 [Example 41, 3-Benzofuran-2-yl-6-{4-[3-((R)-2-methyl-pyrrolidin-1-yl)-propoxy]-phenyl}pyridazine] | < 50 | 180
3 | c1ccc(Oc2ccc(-c3ccc(OCCCN4CCCCC4)cc3)nn2)cc1 [Example 25, 3-Phenoxy-6-[4-(3-piperidin-1-yl-propoxy)phenyl]pyridazine] | < 50 | 139
4 | C[C@@H]1CCCN1CCCOc1ccc(-c2ccc(-c3cccs3)nn2)cc1 [Example 16, 3-{4-[3-((R)-2-Methyl-pyrrolidin-1-yl)-propoxy]phenyl}-6-thiophen-2-yl-pyridazine] | < 50 | 108
5 | C[C@@H]1CCCN1CCCOc1ccc(-c2nnc(Cl)c3c2C2CCC3CC2)cc1 [Example 18, 3-Chloro-6-{4-[3-((R)-2-methyl-pyrrolidin-1-yl)-propoxy]-phenyl}-4,5-diaza-tricyclo[6.2.2.0*2,7*]dodeca-2(7),3,5-triene] | < 50 | 132 to 134
6 | c1ccc(CSc2ccc(-c3ccc(OCCCN4CCCCC4)cc3)nn2)cc1 [Example 34, 3-Benzylsulfanyl-6-[4-(3-piperidin-1-yl-propoxy)-phenyl]pyridazine] | < 50 | 144
7 | C[C@@H]1CCCN1CCCOc1ccc(-c2ccc(Oc3cncc(Cl)c3)nn2)cc1 [Example 19] | < 50 | 119
8 | CC(C)Oc1ccc(-c2ccc(OCCCN3CCC[C@H]3C)cc2)nn1 [Example 24] | < 50 | 75
9 | CSc1ccc(-c2ccc(OCCCN3CCC[C@H]3C)cc2)nn1 [Example 30] | < 50 | 101
